A short description of test [1]: Selectivity index determined for CC50 (test II) to EC50 x 10e3. The class given is functional.
Test [2] is described as follows: Selectivity index determined for CC50 (test I) to EC50 x 10e3. The class given is functional.
A short description of test [3]: Selectivity index determined for CC50 (test II) / EC50 x 10e3. The class given is functional.
A short description of test [4]: Selectivity index determined for CC50 (test I) / EC50 x 10e3. Type of test: functional.
Test [5] deals with Human immunodeficiency virus 1. Put plainly: Effective concentration for 50% protection of HIV-induced cytopathogenicity in MT-4 cells on the MTT assay (ZIDOVUDINE control). The class given is functional, organism-based. As to conditions: Human immunodeficiency virus 1, MT4.
The subject of test [6] is MT4. Put plainly: Cytotoxic concentration of compound required to reduce the viability of mock infected MT-4 cells on the MTT assay in test I. The class given is functional. The settings on record: Homo sapiens. In general terms: Tetrazolium assays rely on reduction of a dye to a coloured formazan, in cell work by metabolically active cells.
In test [7] the test system is MT4. Put plainly: Cytotoxic concentration of compound required to reduce the viability of mock infected MT-4 cells on the MTT assay by testI. Type of test: functional. As to conditions: Homo sapiens.
The next test concerns PBMC (Homo sapiens). Put plainly: Cytotoxic concentration of compound determined by the […] exclusion staining method in PBMC by test II.

pEC50: −log10 of the molar value. Some results are limits rather than exact numbers.

Consider twelve molecules from ChEMBL document CHEMBL1134146, “Development of specific CXCR4 inhibitors possessing high selectivity indexes as well as complete stability in serum based on an anti-HIV peptide T140” (Bioorg Med Chem Lett, 2001).

As a reminder, the pEC50 is the negative decadic logarithm of the EC50, by convention in mol/L. A higher pEC50 goes with a low EC50. Usually CC50 stands for the concentration at which the toxic effect on the cells reaches its halfway point.

As for `NCCCC[C@@H]1NC(=O)[C@@H](CCCCN)NC(=O)[C@H](CCCNC(N)=O)NC(=O)[C@@H](Cc2ccc(O)cc2)NC(=O)[C@H](NC(=O)[C@@H](NC(=O)[C@H](CCCN=C(N)N)NC(=O)[C@@H](N)CCCN=C(N)N)c2ccc3ccccc3c2)CSSC[C@H](C(=O)N[C@@H](CCCN=C(N)N)C(=O)O)NC(=O)[C@H](CCCNC(N)=O)NC(=O)[C@H](CCCN=C(N)N)NC(=O)[C@H](Cc2ccc(O)cc2)NC(=O)[C@H]2CCCN2C1=O`, the SI was 180 in test [1] and above 29 in test [2].

Regarding `NCCCC[C@@H]1NC(=O)[C@@H](CCCCN)NC(=O)[C@H](CCCNC(N)=O)NC(=O)[C@@H](Cc2ccc(O)cc2)NC(=O)[C@H](NC(=O)[C@@H](NC(=O)[C@H](CCCN=C(N)N)NC(=O)[C@@H](N)CCCNC(N)=O)c2ccc3ccccc3c2)CSSC[C@H](C(=O)N[C@@H](CCCN=C(N)N)C(=O)O)NC(=O)[C@H](CCCNC(N)=O)NC(=O)[C@H](CCCN=C(N)N)NC(=O)[C@H](Cc2ccc(O)cc2)NC(=O)[C@H]2CCCN2C1=O`, the figures for the SI in test [1] and in test [2] were 22 and above 2.7, respectively.

Turning to `NCCCC[C@@H]1NC(=O)[C@@H](CCCCN)NC(=O)[C@H](CCCN=C(N)N)NC(=O)[C@@H](Cc2ccc(O)cc2)NC(=O)[C@H](NC(=O)[C@@H](NC(=O)[C@H](CCCN=C(N)N)NC(=O)[C@@H](N)CCCNC(N)=O)c2ccc3ccccc3c2)CSSC[C@H](C(=O)N[C@@H](CCCN=C(N)N)C(=O)O)NC(=O)[C@H](CCCNC(N)=O)NC(=O)[C@H](CCCNC(N)=O)NC(=O)[C@H](Cc2ccc(O)cc2)NC(=O)[C@H]2CCCN2C1=O`, the SI in test [1] was above 12; in test [2] it was above 1.5.

In the case of `NCCCC[C@@H]1NC(=O)[C@@H](CCCCN)NC(=O)[C@H](CCCNC(N)=O)NC(=O)[C@@H](Cc2ccc(O)cc2)NC(=O)[C@H](NC(=O)[C@@H](NC(=O)[C@H](CCCN=C(N)N)NC(=O)[C@@H](N)CCCNC(N)=O)c2ccc3ccccc3c2)CSSC[C@H](C(=O)N[C@@H](CCCN=C(N)N)C(N)=O)NC(=O)[C@H](CCCNC(N)=O)NC(=O)[C@H](CCCN=C(N)N)NC(=O)[C@H](Cc2ccc(O)cc2)NC(=O)[C@H]2CCCN2C1=O`, the SI in test [1] was 53; in test [2], above 15.

`NCCCC[C@H]1NC(=O)[C@H](CCCNC(N)=O)NC(=O)[C@@H](Cc2ccc(O)cc2)NC(=O)[C@H](NC(=O)[C@@H](NC(=O)[C@H](CCCN=C(N)N)NC(=O)[C@@H](N)CCCN=C(N)N)c2ccc3ccccc3c2)CSSC[C@H](C(=O)N[C@@H](CCCN=C(N)N)C(=O)O)NC(=O)[C@H](CCCNC(N)=O)NC(=O)[C@H](CCCN=C(N)N)NC(=O)[C@H](Cc2ccc(O)cc2)NC(=O)[C@H]2CCCN2C(=O)[C@H](CCCNC(N)=O)NC1=O`: the values for the SI in test [1] and in test [2] were above 1600 and above 200, respectively.

`NCCCC[C@@H]1NC(=O)[C@@H](CCCCN)NC(=O)[C@H](CCCN=C(N)N)NC(=O)[C@@H](Cc2ccc(O)cc2)NC(=O)[C@H](NC(=O)[C@@H](NC(=O)[C@H](CCCN=C(N)N)NC(=O)[C@@H](N)CCCN=C(N)N)c2ccc3ccccc3c2)CSSC[C@H](C(=O)N[C@@H](CCCN=C(N)N)C(=O)O)NC(=O)[C@H](CCCNC(N)=O)NC(=O)[C@H](CCCN=C(N)N)NC(=O)[C@H](Cc2ccc(O)cc2)NC(=O)[C@H]2CCCN2C1=O`: the SI in test [3] is 18; in test [4], above 0.3.

Consider `NCCCC[C@@H]1NC(=O)[C@@H](CCCCN)NC(=O)[C@H](CCCNC(N)=O)NC(=O)[C@@H](Cc2ccc(O)cc2)NC(=O)[C@H](NC(=O)[C@@H](NC(=O)[C@H](CCCN=C(N)N)NC(=O)[C@@H](N)CCCN=C(N)N)c2ccc3ccccc3c2)CSSC[C@H](C(=O)N[C@@H](CCCN=C(N)N)C(N)=O)NC(=O)[C@H](CCCNC(N)=O)NC(=O)[C@H](CCCNC(N)=O)NC(=O)[C@H](Cc2ccc(O)cc2)NC(=O)[C@H]2CCCN2C1=O`, for which the SI was above 59 in test [1] and above 15 in test [2].

In test [5], `Cc1cn([C@H]2C[C@H](N=[N+]=[N-])[C@@H](CO)O2)c(=O)[nH]c1=O` [ZIDOVUDINE] gave a pEC50 of 8.10. For the same molecule, in the test with MT4 [6], half-maximal cytotoxicity (CC50) was put at 12 µM. For the same molecule, the SI in test [2] worked out at 1.5.

Regarding `NCCCC[C@@H]1NC(=O)[C@@H](CCCCN)NC(=O)[C@H](CCCNC(N)=O)NC(=O)[C@@H](Cc2ccc(O)cc2)NC(=O)[C@H](NC(=O)[C@@H](NC(=O)[C@H](CCCN=C(N)N)NC(=O)[C@@H](N)CCCN=C(N)N)c2ccc3ccccc3c2)CSSC[C@H](C(=O)N[C@@H](CCCN=C(N)N)C(N)=O)NC(=O)[C@H](CCCNC(N)=O)NC(=O)[C@H](CCCN=C(N)N)NC(=O)[C@H](Cc2ccc(O)cc2)NC(=O)[C@H]2CCCN2C1=O`, the SI was 680 in test [1] and above 170 in test [2].

Consider `NCCCC[C@H]1NC(=O)[C@H](CCCN=C(N)N)NC(=O)[C@@H](Cc2ccc(O)cc2)NC(=O)[C@H](NC(=O)[C@@H](NC(=O)[C@H](CCCN=C(N)N)NC(=O)[C@@H](N)CCCN=C(N)N)c2ccc3ccccc3c2)CSSC[C@H](C(=O)N[C@@H](CCCN=C(N)N)C(N)=O)NC(=O)[C@H](CCCNC(N)=O)NC(=O)[C@H](CCCNC(N)=O)NC(=O)[C@H](Cc2ccc(O)cc2)NC(=O)[C@H]2CCCN2C(=O)[C@H](CCCNC(N)=O)NC1=O`, for which the SI was 250 in test [1] and above 37 in test [2].

For the molecule `NCCCC[C@@H]1NC(=O)[C@H](CCCN=C(N)N)NC(=O)[C@H](Cc2ccc(O)cc2)NC(=O)[C@@H](NC(=O)[C@@H](NC(=O)[C@H](CCCN=C(N)N)NC(=O)[C@@H](N)CCCN=C(N)N)c2ccc3ccccc3c2)CSSC[C@@H](C(=O)N[C@@H](CCCN=C(N)N)C(=O)O)NC(=O)[C@H](CCCNC(N)=O)NC(=O)[C@H](CCCN=C(N)N)NC(=O)[C@H](Cc2ccc(O)cc2)NC(=O)[C@@H]2CCCN2C(=O)[C@@H](CCCCN)NC1=O`, the CC50 is above 1 µM in the test on MT4 [7] and 59 µM in the test on PBMC (Homo sapiens).

For `NCCCC[C@@H]1NC(=O)[C@@H](CCCCN)NC(=O)[C@H](CCCNC(N)=O)NC(=O)[C@@H](Cc2ccc(O)cc2)NC(=O)[C@H](NC(=O)[C@@H](NC(=O)[C@H](CCCN=C(N)N)NC(=O)[C@@H](N)CCCN=C(N)N)c2ccc3ccccc3c2)CSSC[C@H](C(=O)N[C@@H](CCCN=C(N)N)C(=O)O)NC(=O)[C@H](CCCNC(N)=O)NC(=O)[C@H](CCCNC(N)=O)NC(=O)[C@H](Cc2ccc(O)cc2)NC(=O)[C@H]2CCCN2C1=O`, the SI in test [1] is above 90; in test [2], above 11.
